Our source for the GI50 and TGI values is PubChem BioAssay (NCI).

Converted amounts (≈) assume the structure as drawn.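 Briefly, cells in 96-well plates were exposed to five compound concentrations for 48 h, and endpoints were estimated by linear interpolation. Abbreviation: GI50, concentration required for 50% inhibition of growth. At the TGI there is no net growth.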

Among the test systems are BT-549 breast; MDA-MB-435; MDA-N; DMS 114 small cell lung; LXFL 529 NSCLC; KM20L2 colon; DLD-1 colon.
Test in all cases: NCI tumour cell line growth inhibition, 48 h

For `O=C(Cc1ccc(F)c(Cl)c1)Nc1cc(C2(C(F)(F)F)CC2)nn1CC1CCCCC1`, the GI50 in the assay on BT-549 breast was 3.41 µM; in the assay on MDA-MB-435, 3.85 µM. In addition, the TGI with BT-549 breast came out at 14.7 µM; in the assay with MDA-MB-435 it was 11.7 µM.

Take `NC(N)=NCCCC(=O)O`: the TGI with BT-549 breast, with MDA-N and with MDA-MB-435 was more than 100 µM throughout.

For `CCn1c(O)c(/C=N/NC(=O)C(C)c2ccc(CC(C)C)cc2)sc1=S` (configuration not stated), in the assay with BT-549 breast, the GI50 was 0.98 µM and the TGI worked out at 10.3 µM.

For `Cc1nnc(Nc2ccc(NC(=O)Nc3ccc(Cl)cc3)cc2)c2ccccc12`, in the assay on BT-549 breast, the GI50 is 2.21 µM and the TGI is 5.56 µM. In addition, in the assay with MDA-MB-435, the GI50 is 1.73 µM and the TGI worked out at 3.43 µM.

Take `C=CCC1(c2ccc(OC)cc2)C=CC(=O)CC1` (configuration not stated): the TGI in the assay on BT-549 breast, in the assay with MDA-N and in the assay with MDA-MB-435 was more than 100 µM each time.

Regarding `COc1ccc(-c2ccc(=O)oc2C#Cc2cc(OC)c(OC)c(OC)c2)cc1O`, in the assay with BT-549 breast, the GI50 is 0.275 µM and the TGI came to 99.2 µM.

As to `COc1cc(N(CCC#N)CCC#N)ccc1/C(N=Nc1ccc(Cl)cc1)=N/NC(=O)c1cc(Br)ccc1O`, the GI50 in the assay with BT-549 breast is 140 mg/L; with MDA-N it was 90.3 mg/L (≈ 148 µM); in the assay on MDA-MB-435 it was more than 150 mg/L. Moreover, the TGI with BT-549 breast, with MDA-N and with MDA-MB-435 was more than 150 mg/L each time.

`CC(C)(C)c1cc(C(P(=O)(O)O)P(=O)(O)O)cc(C(C)(C)C)c1O`: the TGI in the assay with DMS 114 small cell lung, in the assay on LXFL 529 NSCLC, with KM20L2 colon and in the assay with DLD-1 colon was more than 100 µM in each case.

Turning to `CN1C(=O)c2ccccc2NC(=O)C12O[C@@H]2c1ccccc1` (some centres not stated), the TGI with BT-549 breast, in the assay with MDA-N and with MDA-MB-435 was more than 100 µM in each case.

As to `CC(NCCC(c1ccccc1)c1ccccc1)c1ccccc1` (configuration not stated), the GI50 in the assay with BT-549 breast is 5.42 µM; in the assay on MDA-MB-435, 2.54 µM. Besides, the TGI with BT-549 breast came to 17.6 µM; with MDA-MB-435 it was 7.76 µM.

In the case of `COc1cc(Cl)cc(-c2nn(-c3cccc(NC(=O)c4ccc(N5CCOCC5)c(C(F)(F)F)c4)c3)cc2-c2ccncc2)c1`, the GI50 in the assay with BT-549 breast was 89 µM; in the assay with MDA-MB-435, 43.6 µM. The TGI with BT-549 breast and in the assay on MDA-MB-435 was more than 100 µM throughout.

`COc1ccc2nc3ccccc3c(NCc3ccc(F)cc3)c2c1`: in the assay on BT-549 breast, the GI50 was 4.75 µM and the TGI stood at 11.4 µM. For the same molecule, in the assay with MDA-MB-435, the GI50 was 2.14 µM and the TGI is 8.26 µM.

As to `O=C(Nc1ccc(Br)cc1F)c1cc(Cl)ccc1O`, in the assay on BT-549 breast, the GI50 was 0.44 µM and the TGI is 2.1 µM. In the assay with MDA-MB-435, the GI50 was 0.71 µM and the TGI is 5.88 µM.

As to `CCOc1ccc(/C=C2\N=C(c3ccc([N+](=O)[O-])cc3)OC2=O)cc1`, the TGI with BT-549 breast, in the assay with MDA-N and in the assay on MDA-MB-435 was more than 100 µM in each case.

For the molecule `CN1CCN(c2ccc(Nc3cc(-c4cccc(-n5ccc6cc(C7CC7)cc(F)c6c5=O)c4CO)cn(C)c3=O)nc2)CC1`, in the assay on MDA-MB-435, the GI50 is 3.28 µM and the TGI was 14 µM.

For the molecule `CCC(C)(C)c1ccc(OCCCCNC(=O)c2ccc3ccccc3c2O)c(C(C)(C)CC)c1`, the TGI with BT-549 breast is 82.5 µM; with MDA-N, more than 100 µM.

`N=c1c2c(-c3ccccc3)c(-c3ccccc3)n(Cc3ccccc3)c2ncn1C1CCC(O)CC1` (configuration not stated): in the assay on BT-549 breast, the GI50 is 2.55 µM and the TGI is 9.85 µM. For the same molecule, in the assay with MDA-MB-435, the GI50 was 0.346 µM and the TGI amounted to 4.89 µM.

As for `NS(=O)(=O)c1ccc(N=Nc2c(O)c(C(=O)O)cc3ccccc23)cc1`, the TGI with BT-549 breast, with MDA-N and in the assay on MDA-MB-435 was more than 100 µM in each case.

For `COC(=O)c1c2c(c(C)[n+]([O-])c1C)C(=O)C=C(NCc1ccc(F)cc1)C2=O`, in the assay on BT-549 breast, the GI50 is 1.3 µM and the TGI was found to be 2.63 µM. Besides, in the assay on MDA-MB-435, the GI50 is 0.173 µM and the TGI was determined as 0.339 µM.

Consider `CCN(CC)CCNc1nc(N)c(C#N)c(C#N)c1C#N`, for which the TGI in the assay on BT-549 breast, in the assay on MDA-N and in the assay with MDA-MB-435 was more than 10 µM in each case.

Consider `O=C(NC[C@H](O)CN1CCc2ccccc2C1)c1cc(NC2COC2)ncn1`, for which the GI50 in the assay on BT-549 breast is 7.24 µM; with MDA-MB-435, 12.9 µM. Further, the TGI in the assay with BT-549 breast was found to be 35.4 µM; in the assay with MDA-MB-435, 94.1 µM.

In the case of `O=C(c1ccco1)c1c(C(F)(F)F)nc2ccc(Cl)cc2[n+]1[O-]`, in the assay with BT-549 breast, the GI50 was more than 100 µM and the TGI was more than 100 µM. Moreover, in the assay on MDA-MB-435, the GI50 was more than 100 µM and the TGI was more than 100 µM.

Take `CCN1CCN(c2cc(C)c3cc(NC(=O)c4ccc(OC)c(OC)c4)ccc3n2)CC1`: in the assay on BT-549 breast, the GI50 was more than 33 µM and the TGI is more than 100 µM. Besides, in the assay on MDA-MB-435, the GI50 was 0.448 µM and the TGI is 5.56 µM.

As to `CC(C)C1=Cc2ccc3c(c2C(=O)C1=O)CCCC3(C)C`, the results for the TGI in the assay on LXFL 529 NSCLC, in the assay on KM20L2 colon and in the assay with DLD-1 colon were 3.45 µM, 42.7 µM and 5.08 µM, respectively.

In the case of `O=c1oc2ccc(-c3ccc(F)cc3F)cc2c(=O)n1-c1cccc(C(F)(F)F)c1`, in the assay with BT-549 breast, the GI50 is 0.605 µM and the TGI worked out at 3.7 µM. Further, in the assay on MDA-MB-435, the GI50 was 1.44 µM and the TGI worked out at 8.04 µM.

For `CC(=O)Nc1ccc(-c2csc(Nc3cccc(-c4csc(C)n4)c3)n2)cc1`, in the assay on BT-549 breast, the GI50 is 8.34 µM and the TGI came out at 44.6 µM. Further, in the assay with MDA-MB-435, the GI50 was 0.23 µM.

As for `S=c1[nH]c(=S)c2cc3ccccc3nc2[nH]1`, in the assay with BT-549 breast, the GI50 is 35.4 µM and the TGI was more than 100 µM. In the assay on MDA-MB-435, the GI50 was 31.1 µM and the TGI is more than 100 µM.

On to `c1ccc2c(OCCSCCCCCCCCCCSCCOc3cccc4ccccc34)cccc2c1`, for which the TGI with DMS 114 small cell lung, in the assay on KM20L2 colon and with DLD-1 colon was more than 100 µM each time.
